In patent US20240199587A1, “HETEROCYCLIC COMPOUNDS” (Hoffmann-La Roche Inc., priority 2021, published 2024):

What follows are molecules tested against T1, MAGL (Homo sapiens, UniProt Q99685) (assay: 2-AG assay (MAGL inhibitory activity, hydrolysis of 2-arachidonoylglycerol to arachidonic acid followed by mass spectrometry)). Conditions: 8 μM 2-arachidonoylglycerol, 15 min pre-incubation, 30 min incubation at RT, RapidFire MS readout.
T1 sequence (Q99685 1-303): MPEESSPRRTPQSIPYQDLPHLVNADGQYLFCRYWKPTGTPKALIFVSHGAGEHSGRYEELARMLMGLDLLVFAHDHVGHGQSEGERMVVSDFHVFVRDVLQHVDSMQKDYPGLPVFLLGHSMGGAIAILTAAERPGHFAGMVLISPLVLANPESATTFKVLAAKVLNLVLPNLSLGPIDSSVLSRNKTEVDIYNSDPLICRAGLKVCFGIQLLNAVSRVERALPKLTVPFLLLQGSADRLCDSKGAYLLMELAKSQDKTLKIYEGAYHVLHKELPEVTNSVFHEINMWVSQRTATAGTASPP
Type: biochemical
How it was run: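 Arachidonic acid released from 8 μM 2-arachidonoylglycerol was quantified by online SPE triple-quadrupole MS (negative ESI, 303.1→259.1), normalised to d8-arachidonic acid internal standard. Reaction ran 30 min at RT after 15 min RT compound pre-incubation with […] MAGL in TRIS/EDTA/Tween-20 buffer, 2.5% DMSO.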

Point of comparison: `Cc1cc(C(=O)N2CC3(CC(n4cnc(C5CC5)n4)C3)C2)cnc1OCC1(C(F)(F)F)CC1` [Example 24, [6-(3-cyclopropyl-1,2,4-triazol-1-yl)-2-azaspiro[3.3]heptan-2-yl]-[5-methyl-6-[[1-(trifluoromethyl)cyclo-propyl]methoxy]-3-pyridyl]methanone], IC50 7.7 nM. Against it:
- O=C(N1C[C@H]2C[C@H](Oc3ccc(OC(F)F)cc3F)C[C@H]2C1)N1CC2(CC(n3cnc(C4CC4)n3)C2)C1 [Example 112, [6-(3-cyclopropyl-1,2,4-triazol-1-yl)-2-azaspiro[3.3]heptan-2-yl]−[rac-(3aS,6aR)-5-[4-(difluoromethoxy)-2-fluoro-phenoxy]-3,3a,4,5,6,6a-hexahydro-1H-cyclopenta[c]pyrrol-2-yl]methanone] — within 1.5-fold, 6 nM
- CS(=O)(=O)c1ccc(C2CC3(C2)CN(C(=O)N2CC4(CC(Cc5ccc(F)cc5F)C4)C2)C3)cc1 [Example 346, [6-[(2,4-difluorophenyl)methyl]-2-azaspiro[3.3]heptan-2-yl]-[6-(4-methylsulfonylphenyl)-2-azaspiro[3.3]heptan-2-yl]methanone] — 2-fold higher, 15.7 nM
- O=C(N1CC(c2ccc(C3CC3)cc2F)C1)N1CC2(CC(n3cnc(C4CC4)n3)C2)C1 [Example 38, [3-(4-cyclopropyl-2-fluoro-phenyl)azetidin-1-yl]-[6-(3-cyclopropyl-1,2,4-triazol-1-yl)-2-azaspiro[3.3]heptan-2-yl]methanone] — 13-fold lower, 0.6 nM
- Cc1ccc(OC2CN(C(=O)N3CC4(CC(n5cnc(C6CC6)n5)C4)C3)C2)c(Cl)n1 [Example 100, (3-((2-chloro-6-methylpyridin-3-yl)oxy)azetidin-1-yl)(6-(3-cyclopropyl-1H-1,2,4-triazol-1-yl)-2-azaspiro[3.3]heptan-2-yl)methanone] — 10-fold higher, 79.9 nM
- CC(C)(C)c1nc(-c2ccc(C(=O)N3CC4(CC(n5ncc6c5CCCC6)C4)C3)cc2)no1 [Example 22, [4-(5-tert-butyl-1,2,4-oxadiazol-3-yl)phenyl]-[6-(4,5,6,7-tetrahydroindazol-1-yl)-2-azaspiro[3.3]heptan-2-yl]methanone] — 59-fold higher, 451 nM
- CS(=O)(=O)c1ccc(CC2CC3(C2)CN(C(=O)N2CC4(CC(n5cnc(C6(O)CC6)n5)C4)C2)C3)c(F)c1 [Example 403, [6-[(2-fluoro-4-methylsulfonyl-phenyl)methyl]-2-azaspiro[3.3]heptan-2-yl]-[6-[3-(1-hydroxycyclopropyl)-1,2,4-triazol-1-yl]-2-azaspiro[3.3]heptan-2-yl]methanone] — 6.2-fold lower, 1.25 nM
- COc1ccn(C2CC3(C2)CN(C(=O)c2ccc(-c4noc(C(C)(C)C)n4)cc2)C3)n1 [Example 13, [4-(5-tert-butyl-1,2,4-oxadiazol-3-yl)phenyl]-[6-(3-methoxypyrazol-1-yl)-2-azaspiro[3.3]heptan-2-yl]methanone] — 20-fold higher, 152 nM
- O=C(N1CC(C23CC(c4nnc(C5CC5)[nH]4)(C2)C3)C1)N1CC2(CC(n3cnc(C4CC4)n3)C2)C1 [Example 432, [6-(3-cyclopropyl-1,2,4-triazol-1-yl)-2-azaspiro[3.3]heptan-2-yl]-[3-[3-(5-cyclopropyl-4H-1,2,4-triazol-3-yl)-1-bicyclo[1.1.1]pentanyl]azetidin-1-yl]methanone] — within 1.5-fold, 8.3 nM
- O=C(N1CC2(CC(NC(=O)C3(C(F)(F)F)CC3)C2)C1)N1CC2(CC(n3cnc(C4CC4)n3)C2)C1 [Example 277, N-[2-[6-(3-cyclopropyl-1,2,4-triazol-1-yl)-2-azaspiro[3.3]heptane-2-carbonyl]-2-azaspiro[3.3]heptan-6-yl]-1-(trifluoromethyl) cyclo-propanecarboxamide] — 4.8-fold higher, 37.2 nM
- O=C(N1CC(c2ccc(-c3n[nH]c(C4CC4)n3)cc2)C1)N1CC2(CC(n3cnc(C4CC4)n3)C2)C1 [Example 467, [6-(3-cyclopropyl-1,2,4-triazol-1-yl)-2-azaspiro[3.3]heptan-2-yl]-[3-[4-(5-cyclopropyl-1H-1,2,4-triazol-3-yl)phenyl]azetidin-1-yl]methanone] — 3.3-fold lower, 2.36 nM
- Cc1cc(C(=O)N2CC3(CC(n4cnc(C5CC5)c4)C3)C2)cnc1OCC1(C)CC1 [Example 142, [6-(4-cyclopropylimidazol-1-yl)-2-azaspiro[3.3]heptan-2-yl]−[5-methyl-6-[(1-methylcyclopropyl)methoxy]-3-pyridyl]methanone] — 4.1-fold higher, 31.3 nM
- O=C(N1C[C@H]2C[C@H](Oc3ccc(F)c(C(F)(F)F)c3)C[C@H]2C1)N1CC2(CC(n3cnc(C4CC4)n3)C2)C1 [Example 120, [6-(3-cyclopropyl-1,2,4-triazol-1-yl)-2-azaspiro[3.3]heptan-2-yl]-[rac-(3aS,6aR)-5-[4-fluoro-3-(trifluoromethyl)phenoxy]-3,3a,4,5,6,6a-hexahydro-1H-cyclopenta[c]pyrrol-2-yl]methanone] — 7.7-fold lower, 1 nM
